Measured values published in PMC8508694, “Insights into the Genetic Variations of Human Cytochrome P450 2C9: Structural Analysis, Characterization and Comparison” (International Journal of Molecular Sciences, 2021).

Assays:
CYP2C9*3 = target: T1, CYP2C9*3 (Homo sapiens, UniProt P11712, I359L/V490I); test: ITC; assay type: binding
T1 construct: residues 1 to 23 (N-terminal transmembrane anchor) replaced with MAKKT, V490I, C-terminal four-histidine tag

CYP2C9*8 = target: T2, CYP2C9*8 (Homo sapiens, UniProt P11712, R150H/V490I); test: ([…] Å) and ITC; assay type: binding
T2 construct: residues 1 to 23 (N-terminal transmembrane anchor) replaced with MAKKT, V490I, C-terminal four-histidine tag
T2 sequence (P11712 24-490 R150H/V490I): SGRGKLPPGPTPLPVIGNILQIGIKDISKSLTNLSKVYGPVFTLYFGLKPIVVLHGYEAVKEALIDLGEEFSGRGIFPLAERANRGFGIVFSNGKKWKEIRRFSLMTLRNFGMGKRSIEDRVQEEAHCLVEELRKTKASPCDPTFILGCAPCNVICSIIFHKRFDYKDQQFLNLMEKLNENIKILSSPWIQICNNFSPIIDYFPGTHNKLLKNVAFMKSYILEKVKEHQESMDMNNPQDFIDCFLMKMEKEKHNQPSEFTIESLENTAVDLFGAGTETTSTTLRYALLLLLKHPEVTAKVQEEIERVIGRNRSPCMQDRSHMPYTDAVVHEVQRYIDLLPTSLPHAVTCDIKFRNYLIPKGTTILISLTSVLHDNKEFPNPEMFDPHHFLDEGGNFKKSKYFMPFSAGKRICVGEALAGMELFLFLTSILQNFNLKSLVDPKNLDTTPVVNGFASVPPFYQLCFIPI

T1 sequence (P11712 24-490 I359L/V490I): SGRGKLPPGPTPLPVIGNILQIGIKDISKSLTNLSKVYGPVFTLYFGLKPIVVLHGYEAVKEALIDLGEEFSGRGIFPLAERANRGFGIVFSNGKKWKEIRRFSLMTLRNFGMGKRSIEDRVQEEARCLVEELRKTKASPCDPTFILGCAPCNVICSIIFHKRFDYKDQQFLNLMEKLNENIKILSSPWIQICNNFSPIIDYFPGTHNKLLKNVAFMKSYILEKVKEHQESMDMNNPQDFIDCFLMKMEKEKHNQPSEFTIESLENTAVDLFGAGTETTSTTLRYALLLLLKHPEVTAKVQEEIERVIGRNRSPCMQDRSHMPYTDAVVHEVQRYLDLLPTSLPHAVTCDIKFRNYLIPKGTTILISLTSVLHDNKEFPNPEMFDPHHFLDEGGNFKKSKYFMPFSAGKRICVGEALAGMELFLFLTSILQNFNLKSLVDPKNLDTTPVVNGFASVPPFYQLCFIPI

Question: What does the source list for `CCCCc1nc(Cl)c(CO)n1Cc1ccc(-c2ccccc2-c2nn[nH]n2)cc1` [losartan]?
Answer: Kd (CYP2C9*3): 24.5 ± 2.7 µM; Kd (CYP2C9*8): 8.95 ± 0.97 µM
